Measured values as given in patent US7618623B2, “Hybrid adeno-retroviral vector for the transfection of cells” (priority 2000, dated 2009).
Read-outs that look alike come from different tables or passages of the source.

How the values were obtained:
HSG cells [1] = system: HSG cells
Excerpt: HSG cells were a generous gift from […]. M. Sato (Tokushima University, Japan) (Shirasuna et al., Cancer 48:745, 1981) and were maintained in vitro as previously described (He et al., Pflugers Arch., 36:416, 1990). For the experiments presented herein, HSG cells were dispersed from semi-confluent plates using a solution of Versene 1:5000 in Hanks' balanced salt solution without calcium and magnesium (BioFluids, Rockville Md.). Cells were then resuspended in fresh media consisting of a 1:1 mixture of Eagle's Minimal Essential Medium, (Dulbecco's Modification) and Ham's F-12 supplemented with 2 mM glutamine (BioFluids), 10% fetal calf serum (Hyclone, Logan, Utah), and 100 units/ml penicillin, 100 μg/ml streptomycin and 2.5 μg/ml fungizone (BioFluids).
Cells were grown in 96-well culture plates at a density of 1×10^4 cells/well. […] Six hours after infection, GCV (Cytovene®, Syntex Laboratories, Inc., Palo Alto Calif.) was added to the media at concentrations of 0.5, 5, or 50 μM. After incubation for different time points, the sensitivity of cells to the GCV prodrug was evaluated using two separate methods, assaying either with the tetrazolium salt of 3-(4,5-dimethylthiazol-2-yl)-2,5-diphenyl […] bromide (MTT assay, Chemicon International Inc., Temecula, Calif.) or direct cell counting after trypan blue staining (Bio-Whittaker, Walkersville, Md.).
To assess the ability of the HSV-tk transgene to function in HSG cells, cell viability was studied on tissue culture plastic using the MTT assay. HSG cells were infected with different vector MOIs, and thereafter incubated with several concentrations of GCV (Candotti et al., Cancer Gene Ther., 7:574, 2000).

HSG cells [2] = experiment: Trypan blue staining and manual cell counting on plastic; assay type: cell-based, human; conditions: cells infected with AdLTR.CMV-tk at a MOI of 10; 0.5, 5, 50 μM GCV
Excerpt: HSG cells were a generous gift from […].
To determine the surviving cell number under these growth conditions on a plastic substrate following GCV treatment, in separate experiments trypan blue staining was used as well as manual cell counting.

HSG cells [3] = experiment: Cell death on fibronectin-coated poly-L-lactic acid disks (crystal violet staining, cell count); assay type: cell-based, human; conditions: for cell death: cells infected with AdLTR.CMV-tk (MOI of 10)
Description: Two-dimensional films of poly-L-lactic acid (Boehringer Ingelheim Inc., Winchester, Va.) were produced by melt processing polymer pellets between sheets of aluminum foil using a Carver press at 350° F. to create disks with diameters of 20-25 mm. The disks were sterilized using y-irradiation for ˜150 min with a dose of 20,000 Gy.
Disks were gently placed in each well of a 6-well tissue culture plate (Becton Dickinson, Franklin Lakes, N.J.) and immersed in phosphate-buffered saline (PBS; GibcoBRL, Grand Island, N.Y.) for 18 hours with 5 μg/ml fibronectin at 37° C. (Aframian et al., Tissue Engin. 6:209, 2000). Thereafter, the coated disks were blocked for 1 hr with bovine serum albumin (Calbiochem-Novabiochem Corp., La Jolla, Calif.) at 37° C. and then gently washed twice with PBS (Aframian et al., op. cit.). Cell suspensions (1×10^5 cells; 2 ml/well) were added in complete culture medium and incubated at 37° C. for an additional 18 hours. Thereafter, the medium was discarded, and 10 MOI of virus diluted in PBS was added for an additional 6 hr. Next, GCV diluted in medium was added, and after an additional 125 hr the disks were washed twice in PBS, then stained with 0.2% crystal violet in 20% ethanol for 20 min (Aframian et al., op. cit). The disks were then rinsed twice with PBS and examined under a light microscope using a 10× objective. Three randomly selected photomicrographs were obtained from each specimen using 200 ASA color slide film (Elite chrome, Kodak, Rochester, N.Y.). The slides were scanned to convert them to digital images and, using Adobe Photoshop®, three 200 μm^2 regions were randomly chosen from each field, and cell number was determined visually.
An artificial salivary gland device will have cells grown as a monolayer on a fibronectin-coated poly-L-lactic acid substratum (Aframian et al., Tissue Engin. 6:209, 2000), rather than on tissue culture plastic. Therefore, the ability of GCV to elicit HSG cell death when the cells were attached to poly-L-lactic acid disks pre-coated with 5 μg/ml of human fibronectin was determined. […] The GCV effect ranged from 40% cell death at 0.5 μM GCV to 95% cell death when the GCV concentration was 50 μM.

With `Nc1nc(O)c2ncn(COC(CO)CO)c2n1` [GCV, ganciclovir] the “effect on HSG cell growth and viability” value (HSG cells [1]; GCV doses up to 50 μM, absence of AdLTR.CMV-tk infection) was “does not affect”, the “effect of GCV on viability” value (HSG cells [1]; cells infected with AdLTR.CMV-tk at a MOI of 1) was “without effect” and the “reduced viability compared to no GCV treatment” value (HSG cells [1]; cells infected with AdLTR.CMV-tk at a MOI of 10, all prodrug concentrations (0.5, 5, 50 μM)) was greater than 50%. The “effect of GCV on viability” value (HSG cells [1]; uninfected cells, 0.5, 5, 50 μM GCV) was “without effect”, the “decrease in number of viable cells compared with cells infected with 10 MOI alone” value (HSG cells [2]) was “up to 3 fold” and the “appearance of cell monolayers” value (HSG cells [3]; 50 μM GCV alone, no infection) was “appeared normal”. For the same compound, the “cells remaining on the disk” value (HSG cells [3]; AdLTR.CMV-tk at a MOI of 10 followed by 50 μM of GCV) was “loss of almost all of the cells”, the cell death (HSG cells [3]; 0.5 μM GCV) was 40% and the cell death (HSG cells [3]; 50 μM GCV) was 95%.
